Experimental data taken from patent publication US20240393292A1, “ALLERGY ANTIGEN AND EPITOPE THEREOF” (HOYU CO., LTD., priority 2019, published 2024).

System: IgE antibodies from patients
Experiment: Wheat epitope mapping (2): overlapping 10-amino-acid peptide fragments shifted by one amino acid
Format: binding, human
Details: partial sequence
In short: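 Cellulose-bound 10-mer peptides offset by one residue were probed with patient serum IgE and detected by chemiluminescence. Secondary-antibody-only signals were subtracted per peptide. Residual binding was expressed as % of the parent overlapping peptide, scored as none (<30%), poor (30–<50%), somewhat poor (50–<70%) or retained (≥70%).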

[1] = serum of patient P53 (child, general immediate type allergy to wheat)
[2] = serum of patient P54 (child, general immediate type allergy to wheat)
[3] = serum of patient G3 (adult, general immediate type allergy to wheat)
[4] = serum of patient G6 (adult, general immediate type allergy to wheat)
[5] = serum of patient G7 (adult, general immediate type allergy to wheat)
[6] = serum of patient G9 (adult, general immediate type allergy to wheat)

“2555 (QSTYQLVQQL; REGION 1..10: note = epitope) [compound 2555]” was tested, and the “Epitope sequence binding to IgE antibody, rank of the sequence” value (from here on “Epitope sequence binding to IgE antibody”) (serum of patient P20 (WDEIA)) was “Key”.
With “2556 (QLVQQLCC; REGION 1..8: note = epitope) [compound 2556]” the “Epitope sequence binding to IgE antibody” value (serum of patient P20 (WDEIA)) was “Key”.
For “2558 (QSTYQLVQQL; REGION 1..10: note = epitope) [compound 2558]”, the “Epitope sequence binding to IgE antibody” value (serum of patient P21 (WDEIA)) was “Key”.
“2559 (LVQQLCC; REGION 1..7: note = epitope) [compound 2559]” was tested, and the “Epitope sequence binding to IgE antibody” value (serum of patient P21 (WDEIA)) was “Key”.
With “2560 (LQQSTYQLVQ; REGION 1..10: note = epitope) [compound 2560]” the “Epitope sequence binding to IgE antibody” value (serum of patient P22 (WDEIA)) was “Key”.
For “2561 (LVQQL; REGION 1..5: note = epitope) [compound 2561]”, the “Epitope sequence binding to IgE antibody” value (serum of patient P22 (WDEIA)) was “Key”.
In the case of “2563 (QLVQQLCC; REGION 1..8: note = epitope) [compound 2563]”, the “Epitope sequence binding to IgE antibody” value (serum of patient P24 (WDEIA)) is reported as “Preferably”.
For “2564 (QLVQQ; REGION 1..5: note = epitope) [compound 2564]”, the “Epitope sequence binding to IgE antibody” value (serum of patient P24 (WDEIA)) was “Key”.
In the case of “2565 (QSTYQLVQ; REGION 1..8: note = epitope) [compound 2565]”, the “Epitope sequence binding to IgE antibody” value (serum of patient P25 (WDEIA)) is reported as “Key”.
“2566 (YQLVQQLCC; REGION 1..9: note = epitope) [compound 2566]” was tested, and the “Epitope sequence binding to IgE antibody” value (serum of patient P25 (WDEIA)) was “Key”.
In the case of “2567 (QLVQQ; REGION 1..5: note = epitope) [compound 2567]”, the “Epitope sequence binding to IgE antibody” value (serum of patient P26 (WDEIA)) is reported as “Key”.
In the case of “2569 (QLVQQL; REGION 1..6: note = epitope) [compound 2569]”, the “Epitope sequence binding to IgE antibody” value (serum of patient P27 (WDEIA)) is reported as “Preferably”.
“2570 (QLVQQ; REGION 1..5: note = epitope) [compound 2570]” was tested, and the “Epitope sequence binding to IgE antibody” value (serum of patient P27 (WDEIA)) was “Key”.
For “2574 (QLVQQL; REGION 1..6: note = epitope) [compound 2574]”, the “Epitope sequence binding to IgE antibody” value (serum of patient P28 (WDEIA)) was “Preferably”.
For “2575 (QLVQ; REGION 1..4: note = epitope) [compound 2575]”, the “Epitope sequence binding to IgE antibody” value (serum of patient P28 (WDEIA)) was “Key”.
“2578 (YQLVQQL; REGION 1..7: note = epitope) [compound 2578]” was tested, and the “Epitope sequence binding to IgE antibody” value (serum of patient P29 (WDEIA)) was “Key”.
“2579 (YQLVQQ; REGION 1..6: note = epitope) [compound 2579]” was tested, and the “Epitope sequence binding to IgE antibody” value (serum of patient P30 (WDEIA)) was “Key”.
In the case of “2583 (QLVQQ; REGION 1..5: note = epitope) [compound 2583]”, the “Epitope sequence binding to IgE antibody” value (serum of patient P31 (WDEIA)) is reported as “Preferably”.
In the case of “2584 (QLVQ; REGION 1..4: note = epitope) [compound 2584]”, the “Epitope sequence binding to IgE antibody” value (serum of patient P31 (WDEIA)) is reported as “Key”.
“2585 (LQQSTYQLVQ; REGION 1..10: note = epitope) [compound 2585]” was tested, and the “Epitope sequence binding to IgE antibody” value (serum of patient P32 (WDEIA)) was “Preferably”.
With “2586 (LQQSTYQL; REGION 1..8: note = epitope) [compound 2586]” the “Epitope sequence binding to IgE antibody” value (serum of patient P32 (WDEIA)) was “Key”.
In the case of “2587 (QLVQQLCC; REGION 1..8: note = epitope) [compound 2587]”, the “Epitope sequence binding to IgE antibody” value (serum of patient P32 (WDEIA)) is reported as “Preferably”.
With “2588 (QQLC; REGION 1..4: note = epitope) [compound 2588]” the “Epitope sequence binding to IgE antibody” value (serum of patient P32 (WDEIA)) was “Key”.
In the case of “2590 (QLVQQLCC; REGION 1..8: note = epitope) [compound 2590]”, the “Epitope sequence binding to IgE antibody” value (serum of patient P34 (WDEIA)) is reported as “Preferably”.
With “2591 (QLVQQL; REGION 1..6: note = epitope) [compound 2591]” the “Epitope sequence binding to IgE antibody” value (serum of patient P34 (WDEIA)) was “Key”.
With “2592 (YQLVQQ; REGION 1..6: note = epitope) [compound 2592]” the “Epitope sequence binding to IgE antibody” value (serum of patient P35 (WDEIA)) was “Preferably”.
In the case of “2593 (QLVQ; REGION 1..4: note = epitope) [compound 2593]”, the “Epitope sequence binding to IgE antibody” value (serum of patient P35 (WDEIA)) is reported as “Key”.
“2594 (QLVQQL; REGION 1..6: note = epitope) [compound 2594]” was tested, and the “Epitope sequence binding to IgE antibody” value (serum of patient P36 (WDEIA)) was “Preferably”.
For “2595 (VQQL; REGION 1..4: note = epitope) [compound 2595]”, the “Epitope sequence binding to IgE antibody” value (serum of patient P36 (WDEIA)) was “Key”.
With “2597 (QQSTYQLV; REGION 1..8: note = epitope) [compound 2597]” the “Epitope sequence binding to IgE antibody” value [1] was “Key”.
For “2599 (QLVQQLCC; REGION 1..8: note = epitope) [compound 2599]”, the “Epitope sequence binding to IgE antibody” value [1] was “Preferably”.
With “2600 (QQLC; REGION 1..4: note = epitope) [compound 2600]” the “Epitope sequence binding to IgE antibody” value [1] was “Key”.
“2601 (QQSTYQLVQ; REGION 1..9: note = epitope) [compound 2601]” was tested, and the “Epitope sequence binding to IgE antibody” value [1] was “Preferably”.
In the case of “2602 (QQSTYQLV; REGION 1..8: note = epitope) [compound 2602]”, the “Epitope sequence binding to IgE antibody” value [2] is reported as “Key”.
“2603 (QLVQQLC; REGION 1..7: note = epitope) [compound 2603]” was tested, and the “Epitope sequence binding to IgE antibody” value [2] was “Key”.
“2604 (YQLVQ; REGION 1..5: note = epitope) [compound 2604]” was tested, and the “Epitope sequence binding to IgE antibody” value [2] was “Preferably”.
With “2605 (QLVQ; REGION 1..4: note = epitope) [compound 2605]” the “Epitope sequence binding to IgE antibody” value [3] was “Key”.
“2606 (QLVQQL; REGION 1..6: note = epitope) [compound 2606]” was tested, and the “Epitope sequence binding to IgE antibody” value (serum of patient G5 (adult, general immediate type allergy to wheat)) was “Key”.
For “2607 (LQQSTYQLVQ; REGION 1..10: note = epitope) [compound 2607]”, the “Epitope sequence binding to IgE antibody” value [4] was “Key”.
“2608 (QLVQQL; REGION 1..6: note = epitope) [compound 2608]” was tested, and the “Epitope sequence binding to IgE antibody” value [4] was “Key”.
In the case of “2609 (QLVQQLCC; REGION 1..8: note = epitope) [compound 2609]”, the “Epitope sequence binding to IgE antibody” value [5] is reported as “Key”.
“2610 (LQQSTYQLV; REGION 1..9: note = epitope) [compound 2610]” was tested, and the “Epitope sequence binding to IgE antibody” value [6] was “Key”.
In the case of “2611 (QSTYQLVQQL; REGION 1..10: note = epitope) [compound 2611]”, the “Epitope sequence binding to IgE antibody” value [6] is reported as “Key”.
In the case of “2612 (QLVQQLCC; REGION 1..8: note = epitope) [compound 2612]”, the “Epitope sequence binding to IgE antibody” value [6] is reported as “Key”.
For “2614 (AKPLL; REGION 1..5: note = epitope) [compound 2614]”, the “Epitope sequence binding to IgE antibody” value (serum of patient P2 (WDEIA)) was “Key”.
In the case of “2615 (SLSKRV; REGION 1..6: note = epitope) [compound 2615]”, the “Epitope sequence binding to IgE antibody” value (serum of patient P2 (WDEIA)) is reported as “Key”.
“2616 (AKPLL; REGION 1..5: note = epitope) [compound 2616]” was tested, and the “Epitope sequence binding to IgE antibody” value (serum of patient P24 (WDEIA)) was “Key”.
“2617 (SKRV; REGION 1..4: note = epitope) [compound 2617]” was tested, and the “Epitope sequence binding to IgE antibody” value (serum of patient P24 (WDEIA)) was “Key”.
In the case of “2619 (LASLSK; REGION 1..6: note = epitope) [compound 2619]”, the “Epitope sequence binding to IgE antibody” value (serum of patient P32 (WDEIA)) is reported as “Key”.
In the case of “2621 (LLAS; REGION 1..4: note = epitope) [compound 2621]”, the “Epitope sequence binding to IgE antibody” value (serum of patient G2 (adult, general immediate type allergy to wheat)) is reported as “Key”.
In the case of “2623 (SAKPLL; REGION 1..6: note = epitope) [compound 2623]”, the “Epitope sequence binding to IgE antibody” value [3] is reported as “Preferably”.
In the case of “2624 (AKPLL; REGION 1..5: note = epitope) [compound 2624]”, the “Epitope sequence binding to IgE antibody” value [3] is reported as “Key”.
With “2625 (ASLSKRV; REGION 1..7: note = epitope) [compound 2625]” the “Epitope sequence binding to IgE antibody” value [3] was “Preferably”.
With “2626 (LSKRV; REGION 1..5: note = epitope) [compound 2626]” the “Epitope sequence binding to IgE antibody” value [3] was “Key”.
“2627 (LLASLSKRV; REGION 1..9: note = epitope) [compound 2627]” was tested, and the “Epitope sequence binding to IgE antibody” value [5] was “Key”.
With “2630 (LASLSK; REGION 1..6: note = epitope) [compound 2630]” the “Epitope sequence binding to IgE antibody” value [6] was “Key”.
In the case of “2633 (KEAAEM; REGION 1..6: note = epitope) [compound 2633]”, the “Epitope sequence binding to IgE antibody” value (serum of patient P7 (WDEIA)) is reported as “Preferably”.
For “2634 (EAAE; REGION 1..4: note = epitope) [compound 2634]”, the “Epitope sequence binding to IgE antibody” value (serum of patient P7 (WDEIA)) was “Key”.
For “2637 (KEAAEM; REGION 1..6: note = epitope) [compound 2637]”, the “Epitope sequence binding to IgE antibody” value (serum of patient P10 (WDEIA)) was “Preferably”.
For “2638 (EAAE; REGION 1..4: note = epitope) [compound 2638]”, the “Epitope sequence binding to IgE antibody” value (serum of patient P10 (WDEIA)) was “Key”.
“2640 (RFEKEAAEMN; REGION 1..10: note = epitope) [compound 2640]” was tested, and the “Epitope sequence binding to IgE antibody” value (serum of patient P14 (WDEIA)) was “Preferably”.
With “2641 (KEAAEM; REGION 1..6: note = epitope) [compound 2641]” the “Epitope sequence binding to IgE antibody” value (serum of patient P14 (WDEIA)) was “Key”.
In the case of “2642 (KEAAEM; REGION 1..6: note = epitope) [compound 2642]”, the “Epitope sequence binding to IgE antibody” value (serum of patient P16 (WDEIA)) is reported as “Key”.
In the case of “2643 (KEAAEMN; REGION 1..7: note = epitope) [compound 2643]”, the “Epitope sequence binding to IgE antibody” value (serum of patient P20 (WDEIA)) is reported as “Preferably”.
